Assays:
[1] = biological target: Epidermal growth factor receptor (Homo sapiens) (UniProt P00533); assay: Inhibition of EGFR (unknown origin) at 1 uM relative to control
[2] = biological target: RAC-alpha serine/threonine-protein kinase (Homo sapiens) (UniProt P31749); assay: Inhibition of AKT1 (unknown origin) at 1 uM relative to control
[3] = biological target: Misshapen-like kinase 1 (Homo sapiens) (UniProt Q8N4C8); assay: Inhibition of MINK1 (unknown origin) at 1 uM relative to control
[4] = system: BaF3; assay: Antiproliferative activity against mouse BAF3 cells transfected with LMNA-TRKA G595R mutant assessed as cell viability incubated for 72 hrs by CCK8 assay; format: functional, cell-based; settings: BaF3, 72 h
[5] = biological target: Tyrosine-protein kinase JAK1 (Homo sapiens) (UniProt P23458); assay: Inhibition of JAK1 (unknown origin) at 1 uM relative to control
[6] = biological target: Proto-oncogene tyrosine-protein kinase Src (Homo sapiens) (UniProt P12931); assay: Inhibition of SRC (unknown origin) at 1 uM relative to control
[7] = biological target: Focal adhesion kinase 1 (Homo sapiens) (UniProt Q05397); assay: Inhibition of FAK (unknown origin) at 1 uM relative to control
[8] = system: BaF3; assay: Antitumor activity against mouse BAF3 cells harboring TMP3 fused TRKA G595R mutant xenografted in BALB/c nude mouse assessed as tumor growth inhibition at 30 mg/kg, po administered twice daily for 12 to […] consecutive days; format: functional; settings: time 12-14 day, read-out: TGI
[9] = biological target: Calcium/calmodulin-dependent protein kinase type II subunit beta (Homo sapiens) (UniProt Q13554); assay: Inhibition of CAMK2 (unknown origin) at 1 uM relative to control
[10] = Clearance in Beagle dog at 1 mg/kg, iv measured upto 24 hrs by LC-MS/MS analysis; format: ADME, organism-based, Canis lupus familiaris; settings: in vivo
[11] = Oral bioavailability in Sprague-Dawley rat at 5 mg/kg measured upto 24 hrs by LC-MS/MS analysis; format: ADME, organism-based; settings: in vivo
[12] = Half life in Beagle dog at 5 mg/kg, ig measured upto 24 hrs by LC-MS/MS analysis; format: ADME, organism-based, Canis lupus familiaris; settings: in vivo, po
[13] = biological target: Homeodomain-interacting protein kinase 1 (Homo sapiens) (UniProt Q86Z02); assay: Inhibition of HIPK1 (unknown origin) at 1 uM relative to control
[14] = Clearance in Sprague-Dawley rat at 5 mg/kg, ig measured upto 24 hrs by LC-MS/MS analysis; format: ADME, organism-based; settings: in vivo, po
[15] = Toxicity in BALB/c mouse xenografted with mouse BAF3 cells harboring ETV6 fused TRKC G623R mutant assessed as body weight loss at 15 to 30 mg/kg, po administered twice daily for 12 to 14 consecutive days; format: organism-based; settings: in vivo, dose lower 15 mg/kg, time lower 12 day, dose upper 30 mg/kg, time upper 14 day
[16] = biological target: High affinity nerve growth factor receptor (Homo sapiens, UniProt P04629)
[17] = biological target: Vascular endothelial growth factor receptor 2 (Homo sapiens) (UniProt P35968); assay: Inhibition of KDR (unknown origin) at 1 uM relative to control
[18] = Tmax in Beagle dog at 5 mg/kg, ig measured upto 24 hrs by LC-MS/MS analysis; format: ADME, organism-based, Canis lupus familiaris; settings: in vivo, po
[19] = AUC(0 to infinity) in Beagle dog at 1 mg/kg, iv measured upto 24 hrs by LC-MS/MS analysis; format: ADME, organism-based, Canis lupus familiaris; design: route intravenous, dose 1 mg/kg, time <=24; settings: in vivo
[20] = system: BaF3; format: functional, cell-based; settings: Mus musculus, BaF3, 72 h
[21] = biological target: Mast/stem cell growth factor receptor Kit (Homo sapiens) (UniProt P10721); assay: Inhibition of KIT (unknown origin) at 1 uM relative to control
[22] = biological target: Serine/threonine-protein kinase Nek6 (Homo sapiens) (UniProt Q9HC98); assay: Inhibition of NEK6 (unknown origin) at 1 uM relative to control
[23] = Plasma protein binding in rat; format: ADME, cell-free; settings: read-out: PPB (converted)
[24] = system: BaF3; assay: Antiproliferative activity against mouse BaF3 cells transfected with ETV6-wild type TRKA assessed as cell viability incubated for 72 hrs by CCK8 assay; format: functional, cell-based; settings: BaF3, 72 h
[25] = biological target: ALK tyrosine kinase receptor (Homo sapiens) (UniProt Q9UM73); assay: Inhibition of ALK (unknown origin) at 1 uM relative to control
[26] = biological target: Insulin-like growth factor 1 receptor (Homo sapiens) (UniProt P08069); assay: Inhibition of IGF1R (unknown origin) at 1 uM relative to control
[27] = system: BaF3; assay: animal or person; format: functional; settings: Mus musculus, BaF3, po; dose 15 mg/kg; time 12-14 day; read-out: TGI
[28] = Toxicity in BALB/c nude mouse xenografted with mouse BAF3 cells harboring TMP3 fused TRKA G595R mutant assessed as mortality at 30 mg/kg, po administered twice daily for 12 to […] consecutive days; format: organism-based; settings: in vivo, time 12-14 day
[29] = biological target: Cytoplasmic tyrosine-protein kinase BMX (Homo sapiens) (UniProt P51813); assay: Inhibition of BMX (unknown origin) at 1 uM relative to control
[30] = Toxicity in BALB/c mouse xenografted with mouse BAF3 cells harboring TMP3 fused wild type TRKA assessed as body weight loss at 15 mg/kg, po administered twice daily for 12 to 14 consecutive days; format: organism-based; settings: in vivo, time 12-14 day
[31] = Toxicity in BALB/c nude mouse xenografted with mouse BAF3 cells harboring TMP3 fused TRKA G595R mutant assessed as body weight loss at 30 mg/kg, po administered twice daily for 12 to 14 consecutive days; format: organism-based; settings: in vivo, time 12-14 day
[32] = biological target: Proto-oncogene tyrosine-protein kinase ROS (Homo sapiens) (UniProt P08922); assay: Inhibition of ROS1 (unknown origin) at 1 uM relative to control
[33] = Metabolic stability in human liver microsomes assessed as half life at 1 uM measured upto 90 mins in presence of NADPH regenerating system by LC-MS/MS analysis; format: ADME, Microsome
[34] = biological target: NT-3 growth factor receptor (Homo sapiens, UniProt Q16288, G623R)
[35] = biological target: Serine/threonine-protein kinase mTOR (Homo sapiens) (UniProt P42345); assay: Inhibition of mTOR (unknown origin) at 1 uM relative to control
[36] = Volume of distribution in Sprague-Dawley rat 1 mg/kg, iv measured upto 24 hrs by LC-MS/MS analysis; format: ADME, organism-based; settings: in vivo, read-out: Vz
[37] = AUC(0 to infinity) in Beagle dog at 5 mg/kg, ig measured upto 24 hrs by LC-MS/MS analysis; format: ADME, organism-based, Canis lupus familiaris; design: route […], dose 5 mg/kg, time <=24; settings: in vivo, po
[38] = biological target: Tyrosine-protein kinase receptor UFO (Homo sapiens) (UniProt P30530); assay: Inhibition of AXL (unknown origin) at 1 uM relative to control

High affinity nerve growth factor receptor, sequence (P04629 whole entry): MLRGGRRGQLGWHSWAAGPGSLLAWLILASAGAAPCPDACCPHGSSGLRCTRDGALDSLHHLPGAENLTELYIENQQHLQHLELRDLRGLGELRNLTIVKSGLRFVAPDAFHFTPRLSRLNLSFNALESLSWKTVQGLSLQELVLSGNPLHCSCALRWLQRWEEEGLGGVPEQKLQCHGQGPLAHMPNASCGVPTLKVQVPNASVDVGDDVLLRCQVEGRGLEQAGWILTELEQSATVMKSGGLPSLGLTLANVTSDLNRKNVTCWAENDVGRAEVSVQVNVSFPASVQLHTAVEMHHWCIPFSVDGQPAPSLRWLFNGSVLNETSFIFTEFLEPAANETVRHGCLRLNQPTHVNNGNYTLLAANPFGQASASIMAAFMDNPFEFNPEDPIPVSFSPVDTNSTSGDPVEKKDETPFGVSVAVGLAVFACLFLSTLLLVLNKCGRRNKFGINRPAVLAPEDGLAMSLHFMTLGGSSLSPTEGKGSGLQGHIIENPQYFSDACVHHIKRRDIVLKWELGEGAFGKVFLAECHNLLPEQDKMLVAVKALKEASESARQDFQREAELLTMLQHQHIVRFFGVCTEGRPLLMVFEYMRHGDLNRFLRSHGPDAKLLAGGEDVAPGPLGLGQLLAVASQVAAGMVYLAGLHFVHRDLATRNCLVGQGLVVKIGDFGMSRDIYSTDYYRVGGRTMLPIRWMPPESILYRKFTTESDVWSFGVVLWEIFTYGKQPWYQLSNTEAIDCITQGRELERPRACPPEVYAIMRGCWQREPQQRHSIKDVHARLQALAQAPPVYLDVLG
Insulin-like growth factor 1 receptor (Homo sapiens), sequence (P08069 31-736 limits assumed): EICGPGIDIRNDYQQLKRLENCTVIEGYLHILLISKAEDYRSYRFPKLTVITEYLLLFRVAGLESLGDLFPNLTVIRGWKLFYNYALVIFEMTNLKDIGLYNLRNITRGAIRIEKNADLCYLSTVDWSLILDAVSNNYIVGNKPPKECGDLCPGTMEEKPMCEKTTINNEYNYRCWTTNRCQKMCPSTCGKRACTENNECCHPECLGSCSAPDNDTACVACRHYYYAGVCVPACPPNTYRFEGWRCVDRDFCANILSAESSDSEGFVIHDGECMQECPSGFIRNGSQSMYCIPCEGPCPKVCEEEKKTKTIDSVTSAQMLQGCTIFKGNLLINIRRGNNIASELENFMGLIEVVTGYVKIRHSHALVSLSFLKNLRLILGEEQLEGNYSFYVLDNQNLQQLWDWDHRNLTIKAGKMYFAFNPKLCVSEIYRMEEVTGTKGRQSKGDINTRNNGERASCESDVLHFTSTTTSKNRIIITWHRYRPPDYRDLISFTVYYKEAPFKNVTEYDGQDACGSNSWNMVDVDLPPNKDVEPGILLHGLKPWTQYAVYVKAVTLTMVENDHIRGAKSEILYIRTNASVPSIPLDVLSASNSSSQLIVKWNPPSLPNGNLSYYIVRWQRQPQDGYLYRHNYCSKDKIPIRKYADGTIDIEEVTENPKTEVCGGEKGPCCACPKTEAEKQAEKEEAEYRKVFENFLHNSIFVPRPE
Insulin-like growth factor 1 receptor (Homo sapiens), sequence (P08069 741-1367 limits assumed): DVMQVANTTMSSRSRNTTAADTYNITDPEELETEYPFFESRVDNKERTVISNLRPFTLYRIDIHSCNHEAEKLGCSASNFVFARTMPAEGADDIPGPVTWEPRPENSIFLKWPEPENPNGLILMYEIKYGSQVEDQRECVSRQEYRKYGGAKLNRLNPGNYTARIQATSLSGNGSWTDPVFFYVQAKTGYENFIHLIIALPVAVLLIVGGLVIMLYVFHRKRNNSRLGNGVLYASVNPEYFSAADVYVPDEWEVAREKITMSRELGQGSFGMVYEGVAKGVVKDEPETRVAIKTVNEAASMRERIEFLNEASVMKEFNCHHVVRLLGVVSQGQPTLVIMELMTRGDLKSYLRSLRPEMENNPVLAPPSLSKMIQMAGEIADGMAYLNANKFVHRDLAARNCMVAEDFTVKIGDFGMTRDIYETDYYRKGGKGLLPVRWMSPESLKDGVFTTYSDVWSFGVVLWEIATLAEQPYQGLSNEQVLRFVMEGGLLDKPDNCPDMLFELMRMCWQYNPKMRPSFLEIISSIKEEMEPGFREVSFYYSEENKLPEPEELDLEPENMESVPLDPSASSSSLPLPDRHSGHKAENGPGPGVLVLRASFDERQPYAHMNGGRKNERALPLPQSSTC
Proto-oncogene tyrosine-protein kinase Src (Homo sapiens), sequence (P12931 2-536 limits assumed): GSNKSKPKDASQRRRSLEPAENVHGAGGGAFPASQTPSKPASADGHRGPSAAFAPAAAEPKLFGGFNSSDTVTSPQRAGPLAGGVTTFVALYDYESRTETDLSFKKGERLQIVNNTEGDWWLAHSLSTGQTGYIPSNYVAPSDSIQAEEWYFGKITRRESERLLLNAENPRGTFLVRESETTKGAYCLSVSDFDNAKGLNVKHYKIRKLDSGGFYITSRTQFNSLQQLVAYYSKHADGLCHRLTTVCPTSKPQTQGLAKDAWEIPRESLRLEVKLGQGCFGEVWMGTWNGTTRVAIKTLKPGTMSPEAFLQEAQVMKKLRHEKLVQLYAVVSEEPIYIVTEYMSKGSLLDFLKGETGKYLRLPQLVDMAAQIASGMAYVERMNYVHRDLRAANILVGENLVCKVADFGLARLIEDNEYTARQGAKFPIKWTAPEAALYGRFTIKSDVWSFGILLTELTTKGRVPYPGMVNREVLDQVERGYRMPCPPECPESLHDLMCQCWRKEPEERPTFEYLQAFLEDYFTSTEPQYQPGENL
Epidermal growth factor receptor (Homo sapiens), sequence (P00533 whole entry): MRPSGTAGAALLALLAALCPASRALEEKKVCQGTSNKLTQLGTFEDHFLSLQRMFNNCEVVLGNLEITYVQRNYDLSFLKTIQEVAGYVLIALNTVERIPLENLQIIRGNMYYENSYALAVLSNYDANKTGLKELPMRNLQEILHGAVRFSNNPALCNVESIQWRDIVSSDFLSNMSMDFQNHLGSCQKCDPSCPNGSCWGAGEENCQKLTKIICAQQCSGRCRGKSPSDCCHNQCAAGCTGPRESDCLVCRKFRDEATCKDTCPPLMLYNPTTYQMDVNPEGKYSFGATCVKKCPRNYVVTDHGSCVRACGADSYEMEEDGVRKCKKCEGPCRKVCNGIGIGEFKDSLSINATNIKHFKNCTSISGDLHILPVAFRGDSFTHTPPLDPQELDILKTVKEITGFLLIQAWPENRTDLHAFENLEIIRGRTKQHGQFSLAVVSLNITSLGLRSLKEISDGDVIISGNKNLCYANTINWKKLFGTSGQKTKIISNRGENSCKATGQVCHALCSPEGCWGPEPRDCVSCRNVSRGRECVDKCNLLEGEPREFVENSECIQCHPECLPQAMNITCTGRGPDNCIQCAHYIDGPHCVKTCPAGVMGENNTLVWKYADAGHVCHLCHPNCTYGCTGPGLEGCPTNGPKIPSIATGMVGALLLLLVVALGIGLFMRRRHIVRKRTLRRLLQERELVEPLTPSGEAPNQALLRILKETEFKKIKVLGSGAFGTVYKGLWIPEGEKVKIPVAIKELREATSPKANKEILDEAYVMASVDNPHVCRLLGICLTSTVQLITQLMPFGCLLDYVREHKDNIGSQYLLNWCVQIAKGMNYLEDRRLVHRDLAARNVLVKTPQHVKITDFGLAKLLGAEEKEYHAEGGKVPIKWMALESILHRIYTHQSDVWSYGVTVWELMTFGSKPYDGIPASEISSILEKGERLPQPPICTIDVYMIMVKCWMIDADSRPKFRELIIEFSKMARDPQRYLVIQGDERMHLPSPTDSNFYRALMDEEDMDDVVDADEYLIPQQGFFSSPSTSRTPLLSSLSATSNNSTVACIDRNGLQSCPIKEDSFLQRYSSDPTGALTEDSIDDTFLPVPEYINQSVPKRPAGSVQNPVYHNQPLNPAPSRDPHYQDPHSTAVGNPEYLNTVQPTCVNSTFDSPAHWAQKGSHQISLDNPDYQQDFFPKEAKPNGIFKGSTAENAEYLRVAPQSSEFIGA
NT-3 growth factor receptor, sequence (Q16288 32-839 G623R limits assumed): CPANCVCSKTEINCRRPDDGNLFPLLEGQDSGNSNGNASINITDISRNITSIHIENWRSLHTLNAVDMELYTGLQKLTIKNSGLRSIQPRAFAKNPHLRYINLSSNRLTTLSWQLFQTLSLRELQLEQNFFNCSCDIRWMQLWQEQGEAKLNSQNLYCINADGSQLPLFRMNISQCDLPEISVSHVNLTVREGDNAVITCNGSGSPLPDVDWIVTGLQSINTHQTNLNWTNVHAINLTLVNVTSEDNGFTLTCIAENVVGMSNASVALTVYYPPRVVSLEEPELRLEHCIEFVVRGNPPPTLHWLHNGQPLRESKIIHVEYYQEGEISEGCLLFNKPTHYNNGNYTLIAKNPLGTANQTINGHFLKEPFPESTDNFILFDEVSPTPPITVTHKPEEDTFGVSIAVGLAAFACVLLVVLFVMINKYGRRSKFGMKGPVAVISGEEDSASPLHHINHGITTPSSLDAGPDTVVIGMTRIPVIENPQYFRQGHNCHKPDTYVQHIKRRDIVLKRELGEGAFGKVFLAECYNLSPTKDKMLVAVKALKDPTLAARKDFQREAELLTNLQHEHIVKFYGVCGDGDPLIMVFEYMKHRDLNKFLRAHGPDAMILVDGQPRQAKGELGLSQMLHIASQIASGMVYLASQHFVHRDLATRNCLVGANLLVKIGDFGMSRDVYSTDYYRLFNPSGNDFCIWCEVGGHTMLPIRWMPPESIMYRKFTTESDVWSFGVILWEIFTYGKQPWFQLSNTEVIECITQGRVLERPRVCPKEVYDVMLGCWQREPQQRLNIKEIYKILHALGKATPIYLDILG
Serine/threonine-protein kinase Nek6 (Homo sapiens), sequence (Q9HC98 whole entry): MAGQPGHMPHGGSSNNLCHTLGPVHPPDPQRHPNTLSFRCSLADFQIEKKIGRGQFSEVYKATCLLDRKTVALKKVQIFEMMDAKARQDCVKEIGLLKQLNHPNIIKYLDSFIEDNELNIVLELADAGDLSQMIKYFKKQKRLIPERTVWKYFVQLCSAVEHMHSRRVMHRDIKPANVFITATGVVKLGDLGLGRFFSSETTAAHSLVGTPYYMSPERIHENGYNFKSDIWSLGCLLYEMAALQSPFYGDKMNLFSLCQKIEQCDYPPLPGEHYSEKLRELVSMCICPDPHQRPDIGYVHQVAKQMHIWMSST

C[C@@H](Nc1ccn2ncc(-c3cnn(CCO)c3)c2n1)c1cc(F)ccc1OCC(F)F
inhibition [1]: < 50% | inhibition [2]: < 50% | inhibition [3]: < 50% | IC50 [4]: 1.6 nM | inhibition [5]: > 80% | inhibition [6]: < 50% | inhibition [7]: > 80% | inhibition in vivo at 30 mg/kg [8]: 61% | inhibition [9]: < 50% | clearance [10]: 7.83 mL/min/kg | bioavailability [11]: 49% | half-life [12]: 6.28 h | inhibition [13]: < 50% | CL/F [14]: 158 mL/min/kg | Activity [15]: Non-Toxic | IC50 [16]: 0.7 nM | inhibition [17]: < 50% | Tmax [18]: 0.83 h | AUC(0-inf) [19]: 2140 ng·h/mL | IC50 [20]: 10.9 nM | inhibition [21]: < 50% | inhibition [22]: < 50% | fraction unbound [23]: 0.121 | IC50 [24]: 0.2 nM | inhibition [25]: > 80% | inhibition [26]: < 50% | inhibition in vivo at 15 mg/kg [27]: 85% | Activity [28]: Non-Toxic | inhibition [29]: > 80% | Activity [30]: Non-Toxic | Activity [31]: Non-Toxic | inhibition [32]: > 80% | half-life at 1 µM [33]: 5.25 h | IC50 [34]: 0.6 nM | inhibition [35]: < 50% | Vd [36]: 40 L/kg | AUC(0-inf) [37]: 9630 ng·h/mL | inhibition [38]: > 80%

Source: ChEMBL document CHEMBL5034031, “Discovery of Next-Generation Tropomyosin Receptor Kinase Inhibitors for Combating Multiple Resistance Associated with Protein Mutation” (J Med Chem, 2021)
